Data from patent US8198273B2, “Compounds and methods for kinase modulation, and indications therefor” (Plexxikon Inc., priority 2009, dated 2012).

How the values were obtained:
[1] = target: CYP3A4(BFC) (Homo sapiens, UniProt P08684); experiment: CYP3A4(BFC) inhibition (fluorescent substrate); assay type: in vitro ADME; conditions: read-out: Cyp IC50 3A4(BFC)
Outline: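 Compound, from a 100 mM DMSO stock and diluted 1:1 over 10 points in co-factor mix, was incubated at 37° C with enzyme and a known substrate. Decrease in fluorescent product against concentration gave the IC50.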

[2] = target: B-Raf (Homo sapiens, UniProt P15056); experiment: B-Raf biochemical kinase inhibition (AlphaScreen, biotin-MEK1 substrate); conditions: 100 μM ATP
Outline: (§1)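 Serial 1:3 dilutions of compound (0.1 mM DMSO stock, eight points) were added first, then ATP to start the reaction at 100 μM final.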

[3] = target: T1, A-Raf (Homo sapiens, UniProt P10398); experiment: A-Raf biochemical kinase inhibition (AlphaScreen, biotin-MEK1 substrate); conditions: 100 μM ATP
T1 sequence (P10398 1-606): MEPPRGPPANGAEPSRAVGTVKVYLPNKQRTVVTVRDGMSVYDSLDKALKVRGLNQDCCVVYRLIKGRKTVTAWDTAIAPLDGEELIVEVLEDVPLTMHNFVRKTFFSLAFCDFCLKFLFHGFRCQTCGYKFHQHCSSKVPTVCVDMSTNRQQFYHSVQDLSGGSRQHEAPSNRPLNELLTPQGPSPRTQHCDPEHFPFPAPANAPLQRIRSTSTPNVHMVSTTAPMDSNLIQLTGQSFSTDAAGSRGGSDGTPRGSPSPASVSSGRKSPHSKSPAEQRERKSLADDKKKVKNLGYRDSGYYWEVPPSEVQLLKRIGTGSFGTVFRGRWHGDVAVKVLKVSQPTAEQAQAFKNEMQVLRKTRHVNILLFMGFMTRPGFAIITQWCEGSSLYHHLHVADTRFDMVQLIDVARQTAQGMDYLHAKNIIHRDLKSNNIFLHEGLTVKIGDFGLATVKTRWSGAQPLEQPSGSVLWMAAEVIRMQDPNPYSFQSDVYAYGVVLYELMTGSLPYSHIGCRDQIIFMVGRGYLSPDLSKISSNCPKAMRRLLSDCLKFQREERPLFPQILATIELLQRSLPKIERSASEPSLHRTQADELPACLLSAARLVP
Outline: as §1

[4] = system: Colo205 xenograft; experiment: Colo205 xenograft mouse model, tumor growth inhibition; assay type: in vivo; conditions: COLO 205, 336 h, female nu/nu mice, 10 mg/kg daily for fourteen days
Method: Tumor growth is monitored to approximately 100 mg size, and mice are distributed to treatment groups such that the mean tumor burden within a group is within 10% of the overall mean tumor burden. […] Mice are observed daily, with tumor burden and body weights measured twice a week. Animals with tumor burden above 1500-2000 mg and any animals in moribund condition are euthanized. The average tumor growth of vehicle control group mice is compared to the average tumor growth of the test compound mice. Percent tumor growth inhibition is calculated as 100×[(tumor growth control-tumor growth test compound)/tumor growth control].

[5] = Relative solubility by turbidity in aqueous buffers of varying pH; assay type: physicochemical; conditions: for turbidity threshold (L, M, H) 7.4: HEPES pH 7.4; for turbidity threshold (L, M, H) 4.5: SIF pH 4.5; for turbidity threshold (L, M, H) 6.8: SIF pH 6.8; for turbidity threshold (L, M, H) 1.4: buffer pH 1.4 (SGF)
Outline: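 Turbidity endpoint: concentration where optical density at 490, 535 and 650 nm exceeds 0.01, three-wavelength average used. Buffers at pH 1.5, 4.5, 6.8 and 7.4; DMSO serial dilutions of 25 mM stock spiked 1 μL into 99 μL buffer. Low <31.3, moderate 31.3–250, high >250 μM.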

Sequence of CYP3A4(BFC) (P08684 whole entry): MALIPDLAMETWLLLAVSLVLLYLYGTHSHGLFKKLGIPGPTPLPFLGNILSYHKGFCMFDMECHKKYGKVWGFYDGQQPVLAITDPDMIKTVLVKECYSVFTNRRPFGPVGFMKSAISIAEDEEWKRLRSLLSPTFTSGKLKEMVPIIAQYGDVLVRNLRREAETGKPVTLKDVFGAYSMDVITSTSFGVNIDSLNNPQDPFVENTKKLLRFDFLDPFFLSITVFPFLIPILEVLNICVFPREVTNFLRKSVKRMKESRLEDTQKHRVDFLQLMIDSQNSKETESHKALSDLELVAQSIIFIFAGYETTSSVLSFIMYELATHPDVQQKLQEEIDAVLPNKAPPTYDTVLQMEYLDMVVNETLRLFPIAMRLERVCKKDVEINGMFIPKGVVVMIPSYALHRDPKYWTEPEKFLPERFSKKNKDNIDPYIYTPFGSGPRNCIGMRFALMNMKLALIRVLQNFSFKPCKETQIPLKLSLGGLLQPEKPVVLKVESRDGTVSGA
Sequence of B-Raf (P15056 whole entry): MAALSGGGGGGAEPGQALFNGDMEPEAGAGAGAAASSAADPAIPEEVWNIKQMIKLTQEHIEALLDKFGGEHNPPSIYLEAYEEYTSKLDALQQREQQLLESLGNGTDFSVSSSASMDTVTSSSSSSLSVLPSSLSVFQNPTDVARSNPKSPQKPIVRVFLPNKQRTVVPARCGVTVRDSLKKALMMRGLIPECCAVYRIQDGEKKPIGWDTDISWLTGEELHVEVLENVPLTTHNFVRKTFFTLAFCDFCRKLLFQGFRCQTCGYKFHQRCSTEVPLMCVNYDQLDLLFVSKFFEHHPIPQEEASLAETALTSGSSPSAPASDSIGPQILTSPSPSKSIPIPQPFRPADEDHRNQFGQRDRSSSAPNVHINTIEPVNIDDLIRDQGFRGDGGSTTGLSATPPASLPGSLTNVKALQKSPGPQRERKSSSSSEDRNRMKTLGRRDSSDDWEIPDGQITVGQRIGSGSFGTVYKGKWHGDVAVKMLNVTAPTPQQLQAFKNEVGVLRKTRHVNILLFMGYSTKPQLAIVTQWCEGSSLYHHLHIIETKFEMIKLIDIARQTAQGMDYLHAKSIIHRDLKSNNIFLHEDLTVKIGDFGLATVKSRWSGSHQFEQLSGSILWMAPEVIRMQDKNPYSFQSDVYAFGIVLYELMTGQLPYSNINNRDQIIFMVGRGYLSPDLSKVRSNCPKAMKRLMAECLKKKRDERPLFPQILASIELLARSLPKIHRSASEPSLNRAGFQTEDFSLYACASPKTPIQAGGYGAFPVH

Compound | IC50 [1] [µM] | IC50 [2] [nM] | IC50 [3] [nM] | inhibition in vivo at 10 mg/kg [4] [%] | turbidity threshold (L, M, H) 7.4 [5] | turbidity threshold (L, M, H) 4.5 [5] | turbidity threshold (L, M, H) 6.8 [5] | turbidity threshold (L, M, H) 1.4 [5]
C#Cc1cnc2[nH]cc(C(=O)c3c(F)ccc(NS(=O)(=O)CCC)c3F)c2c1 [P-2260, Propane-1-sulfonic acid [3-(5-ethynyl-1H-pyrrolo[2,3-b]pyridine-3-carbonyl)-2,4-difluoro-phenyl]-amide] | < 5 | < 10 | < 10 | 79 | L (low solubility if the threshold concentration is <31.3 04) | L (low solubility if the threshold concentration is <31.3 04) | L (low solubility if the threshold concentration is <31.3 04) | L (low solubility if the threshold concentration is <31.3 04)
CCCS(=O)(=O)Nc1ccc(F)c(C(=O)c2c[nH]c3ncc(-c4ccc(OCCN5CCOCC5)nc4)cc23)c1F [P-2232, Propane-1-sulfonic acid (2,4-difluoro-3-{5-[6-(2-morpholin-4-yl-ethoxy)-pyridin-3-yl]-1H-pyrrolo[2,3-b]pyridine-3-carbonyl}-phenyl)-amide] | > 10 | < 10 | < 10 | 54 | L (low solubility if the threshold concentration is <31.3 04) | M (moderate solubility if the threshold concentration is 31.3 μM to 250 μM) | L (low solubility if the threshold concentration is <31.3 04) | M (moderate solubility if the threshold concentration is 31.3 μM to 250 μM)
CCCS(=O)(=O)Nc1ccc(F)c(C(=O)c2c[nH]c3ncc(-c4cnc(N(C)C)nc4)cc23)c1F [P-2196, Propane-1-sulfonic acid {3-[5-(2-dimethylamino-pyrimidin-5-yl)-1H-pyrrolo[2,3-b]pyridine-3-carbonyl]-2,4-difluoro-phenyl}-amide] | < 5 | < 10 | < 10 | 71 | L (low solubility if the threshold concentration is <31.3 04) | L (low solubility if the threshold concentration is <31.3 04) | L (low solubility if the threshold concentration is <31.3 04) | M (moderate solubility if the threshold concentration is 31.3 μM to 250 μM)

More lines, main results first:

IC50 [1] [µM] | IC50 [2] [nM] | IC50 [3] [nM] | Compound | inhibition in vivo at 10 mg/kg [4] [%] | turbidity threshold (L, M, H) 7.4 [5] | turbidity threshold (L, M, H) 4.5 [5] | turbidity threshold (L, M, H) 6.8 [5] | turbidity threshold (L, M, H) 1.4 [5]
> 10 | < 100 | < 10 | N#Cc1cnc2[nH]cc(C(=O)c3c(F)ccc(NS(=O)(=O)c4ccccc4F)c3F)c2c1 [P-2011, N-[3-(5-Cyano-1H-pyrrolo[2,3-b]pyridine-3-carbonyl)-2,4-difluoro-phenyl]-2-fluoro-benzenesulfonamide] | 72 | M (moderate solubility if the threshold concentration is 31.3 μM to 250 μM) | M (moderate solubility if the threshold concentration is 31.3 μM to 250 μM) | M (moderate solubility if the threshold concentration is 31.3 μM to 250 μM) | M (moderate solubility if the threshold concentration is 31.3 μM to 250 μM)
> 10 | < 10 | < 10 | N#Cc1cnc2[nH]cc(C(=O)c3c(F)ccc(NS(=O)(=O)c4ccccc4)c3F)c2c1 [P-2046, N-[3-(5-Cyano-1H-pyrrolo[2,3-b]pyridine-3-carbonyl)-2,4-difluoro-phenyl]-benzenesulfonamide] | 70 | M (moderate solubility if the threshold concentration is 31.3 μM to 250 μM) | L (low solubility if the threshold concentration is <31.3 04) | M (moderate solubility if the threshold concentration is 31.3 μM to 250 μM) | L (low solubility if the threshold concentration is <31.3 04)
